The values that follow come from publication PMC9611727, “Optimization of a Novel Mandelamide-Derived Pyrrolopyrimidine Series of PERK Inhibitors” (Pharmaceutics, 2022).

The structures appear in SMILES notation. pIC50: −log10 of the molar value.

For one test, the target named is T1, PERK (Homo sapiens, UniProt Q9NZJ5).
T1 construct: purchased Carna 05-155
In words: ISR kinase cell-free biochemical assay (Carna), PERK. The note with it: ATP 8 µM. The protocol: (§1) In brief, 26 was dissolved in DMSO and serially diluted 3-fold to generate concentrations ranging from 10 µM to 0.2 nM in a 384-well plate using a TECAN EVO200 automated liquid handler. 10 nL stock solution was transferred into each well of a 384well assay plate by an Echo550 and an equivalent volume of DMSO was added to the control wells. To each assay well, recombinant protein was suspended in 20 µL reaction buffer (listed below) and incubated at 25 °C for 1.5 h while shaking at 1250 rpm. Following incubation, 10 µL of a FRET dilution buffer including 20 mM EDTA and 4 nM Tb-anti-peIF2a [pSer51] (Invitrogen, Cat# PV4815) was added to each well and incubated at 25 °C for 2 h while shaking at 600 rpm in the dark. Analysis was performed using an Envision Microplate Reader (PerkinElmer).

In a further test the target is T2, GCN2 (Homo sapiens, UniProt Q9P2K8).
T2 construct: purchased Carna 05-153
T2 sequence (Q9P2K8 whole entry): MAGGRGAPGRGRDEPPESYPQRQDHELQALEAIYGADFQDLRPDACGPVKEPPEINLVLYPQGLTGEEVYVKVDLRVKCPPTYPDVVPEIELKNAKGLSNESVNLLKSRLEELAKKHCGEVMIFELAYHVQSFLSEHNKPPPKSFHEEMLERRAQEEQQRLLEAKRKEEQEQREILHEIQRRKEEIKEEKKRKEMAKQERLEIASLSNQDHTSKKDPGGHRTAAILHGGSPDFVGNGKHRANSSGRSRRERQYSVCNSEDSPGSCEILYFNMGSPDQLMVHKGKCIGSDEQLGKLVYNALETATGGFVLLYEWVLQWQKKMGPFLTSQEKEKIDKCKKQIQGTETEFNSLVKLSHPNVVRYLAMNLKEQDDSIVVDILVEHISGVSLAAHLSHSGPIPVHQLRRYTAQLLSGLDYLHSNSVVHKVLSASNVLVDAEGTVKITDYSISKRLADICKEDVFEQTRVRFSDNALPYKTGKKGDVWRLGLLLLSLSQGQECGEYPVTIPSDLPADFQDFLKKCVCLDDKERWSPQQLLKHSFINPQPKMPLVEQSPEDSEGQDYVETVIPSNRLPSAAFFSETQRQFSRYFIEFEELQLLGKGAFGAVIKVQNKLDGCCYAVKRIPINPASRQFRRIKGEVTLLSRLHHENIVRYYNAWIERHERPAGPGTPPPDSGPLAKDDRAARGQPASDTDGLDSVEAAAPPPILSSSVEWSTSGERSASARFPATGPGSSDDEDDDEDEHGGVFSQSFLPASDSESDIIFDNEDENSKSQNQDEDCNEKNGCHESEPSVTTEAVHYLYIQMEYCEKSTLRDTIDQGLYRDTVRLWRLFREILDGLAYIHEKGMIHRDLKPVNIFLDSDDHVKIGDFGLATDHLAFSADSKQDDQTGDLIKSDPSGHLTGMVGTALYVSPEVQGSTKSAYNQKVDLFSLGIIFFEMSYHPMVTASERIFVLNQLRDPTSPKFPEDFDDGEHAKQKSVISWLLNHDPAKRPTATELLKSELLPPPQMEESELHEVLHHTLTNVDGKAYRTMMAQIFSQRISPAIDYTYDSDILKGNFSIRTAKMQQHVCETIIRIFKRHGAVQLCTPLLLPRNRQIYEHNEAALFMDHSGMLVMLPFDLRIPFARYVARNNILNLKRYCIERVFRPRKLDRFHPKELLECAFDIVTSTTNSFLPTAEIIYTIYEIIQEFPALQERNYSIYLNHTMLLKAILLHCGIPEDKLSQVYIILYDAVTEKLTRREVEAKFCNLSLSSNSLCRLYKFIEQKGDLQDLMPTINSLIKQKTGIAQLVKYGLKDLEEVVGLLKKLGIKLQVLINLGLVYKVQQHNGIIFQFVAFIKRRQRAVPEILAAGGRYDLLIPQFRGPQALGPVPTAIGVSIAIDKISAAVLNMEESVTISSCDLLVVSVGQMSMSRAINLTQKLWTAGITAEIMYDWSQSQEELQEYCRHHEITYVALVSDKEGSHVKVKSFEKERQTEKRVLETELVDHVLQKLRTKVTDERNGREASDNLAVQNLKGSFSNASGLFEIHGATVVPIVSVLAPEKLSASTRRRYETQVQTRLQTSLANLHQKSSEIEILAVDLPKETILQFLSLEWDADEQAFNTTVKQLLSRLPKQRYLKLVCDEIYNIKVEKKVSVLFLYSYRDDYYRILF
As to the kind of experiment: ISR kinase cell-free biochemical assay (Carna), GCN2. The note with it: ATP 150 µM. The protocol:
as §1

Another test deals with T3, PKR (Homo sapiens, UniProt P19525).
T3 construct: purchased Carna 05-156
T3 sequence (P19525 whole entry): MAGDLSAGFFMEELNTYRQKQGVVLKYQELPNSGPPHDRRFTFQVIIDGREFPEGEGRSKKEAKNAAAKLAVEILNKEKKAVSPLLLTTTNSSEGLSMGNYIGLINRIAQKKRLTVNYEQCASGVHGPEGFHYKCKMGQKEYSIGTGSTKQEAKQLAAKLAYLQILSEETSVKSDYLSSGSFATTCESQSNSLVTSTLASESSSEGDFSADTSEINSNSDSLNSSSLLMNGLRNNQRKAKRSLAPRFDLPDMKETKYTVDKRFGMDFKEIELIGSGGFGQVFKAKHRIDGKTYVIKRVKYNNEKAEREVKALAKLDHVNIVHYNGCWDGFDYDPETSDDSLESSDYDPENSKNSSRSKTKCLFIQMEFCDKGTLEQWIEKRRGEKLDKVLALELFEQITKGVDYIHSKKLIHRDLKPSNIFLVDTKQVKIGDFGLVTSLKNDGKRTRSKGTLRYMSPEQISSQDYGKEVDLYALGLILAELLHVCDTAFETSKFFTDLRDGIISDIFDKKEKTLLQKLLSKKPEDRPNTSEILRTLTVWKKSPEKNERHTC
As to the kind of experiment: ISR kinase cell-free biochemical assay (Carna), PKR. The conditions noted are these: ATP 6 µM. The method, then: as §1

The next test addresses T4, HRI (Homo sapiens, UniProt Q9BQI3).
T4 construct: purchased Carna 05-154
As to the kind of experiment: ISR kinase cell-free biochemical assay (Carna), HRI. The conditions noted are these: ATP 30 µM. The protocol:
as §1

For the next test, the system named is p-ERK. In words: FLT3-ITD downstream signaling, p-ERK western blot in MV4-11 cells. The test is classed as cell-based. The note with it: Homo sapiens, normalized to Crenolanib, read-out: pERK IC50. The method, then: MV-4-11 and EoL-1 were plated at a density 20,000 cells/well in a 96 well plate. Cells were incubated with DMSO, 1 µM docetaxel, or an 8-pt, 2-fold dose response of 26 in quadruplicate. On day 3 and day 7, cells from DMSO-treated wells were counted and cells from all wells were split back so that the DMSO-treated wells matched the original seeding density. Cells were centrifuged in 96 well filter plates (Sigma) and resuspended in fresh compound-containing media.
On day 10, cells were incubated with alamarBlue™ HS Cell Viability Reagent (Invitogen) (10 µL of alamarBlue in a well of 90 µL media) for 2 hours at 37C/5% CO2. Fluorescence was measured on the EnVision Plate reader (Perkin Elmer) at an ex/em of 560/590 nm. Raw fluorescence values were normalized to positive and negative controls (DMSO, 1 µM docetaxel) to get a % viability. Replicates were averaged and dose responses were plotted on a 4 Parameter Logistic […]
MV-4-11 cells were plated in 6 well plates overnight in reduced serum media (IMDM + 0.5% FBS). The following day, compound or vehicle were added to the plate for a final DMSO concentration of 0.1% and incubated at 37 C for 2 hours.
Cells were washed with 1X PBS (Gibco 10010-023), and lysed in RIPA buffer with added inhibitors. Protein concentration was determined using a BCA assay (Thermo Scientific 23225). […]

The subject of the next test is Kasumi-1 (FLT3wt). As to the kind of experiment: Cell viability assay, Kasumi-1. The test is classed as cell-based. The note with it: Homo sapiens.
Another test deals with MOLM-13 (FLT3-ITD). In words: Cell viability assay, MOLM-13. The test is classed as cell-based. The note with it: Homo sapiens.

T4 sequence (Q9BQI3 whole entry): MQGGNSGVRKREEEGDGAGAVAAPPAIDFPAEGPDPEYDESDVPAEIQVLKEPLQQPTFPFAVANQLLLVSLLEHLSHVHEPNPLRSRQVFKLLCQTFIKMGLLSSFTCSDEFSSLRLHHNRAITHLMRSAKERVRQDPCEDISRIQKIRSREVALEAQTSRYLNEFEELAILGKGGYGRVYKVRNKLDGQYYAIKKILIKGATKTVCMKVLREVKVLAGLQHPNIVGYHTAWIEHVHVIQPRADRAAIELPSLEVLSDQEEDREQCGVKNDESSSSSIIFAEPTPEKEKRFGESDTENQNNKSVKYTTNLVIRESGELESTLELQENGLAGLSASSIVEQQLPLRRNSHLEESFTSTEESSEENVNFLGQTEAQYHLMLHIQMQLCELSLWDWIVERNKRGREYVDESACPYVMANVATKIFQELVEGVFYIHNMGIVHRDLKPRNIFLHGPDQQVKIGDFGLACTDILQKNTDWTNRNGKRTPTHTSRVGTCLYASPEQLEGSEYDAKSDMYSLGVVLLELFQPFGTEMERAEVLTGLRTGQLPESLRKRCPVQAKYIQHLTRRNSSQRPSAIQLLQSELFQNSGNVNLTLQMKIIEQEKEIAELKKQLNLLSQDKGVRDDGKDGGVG
T1 sequence (Q9NZJ5 563-1116 limits assumed): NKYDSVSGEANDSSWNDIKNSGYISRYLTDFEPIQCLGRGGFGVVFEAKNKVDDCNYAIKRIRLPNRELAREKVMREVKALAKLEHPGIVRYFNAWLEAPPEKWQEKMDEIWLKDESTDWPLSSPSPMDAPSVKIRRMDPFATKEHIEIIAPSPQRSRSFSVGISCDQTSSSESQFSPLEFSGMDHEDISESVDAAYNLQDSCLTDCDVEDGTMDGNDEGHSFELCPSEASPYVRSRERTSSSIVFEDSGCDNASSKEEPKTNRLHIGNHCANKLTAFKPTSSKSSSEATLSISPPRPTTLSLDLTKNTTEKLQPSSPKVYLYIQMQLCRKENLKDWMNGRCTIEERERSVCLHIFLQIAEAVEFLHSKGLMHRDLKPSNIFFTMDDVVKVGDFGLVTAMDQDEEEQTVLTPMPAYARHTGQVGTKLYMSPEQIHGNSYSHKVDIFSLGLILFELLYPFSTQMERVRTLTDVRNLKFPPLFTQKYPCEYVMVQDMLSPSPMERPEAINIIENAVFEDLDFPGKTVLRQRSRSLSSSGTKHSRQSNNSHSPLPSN

For the compound `Cc1nc(N)c2c(-c3ccc(NC(=O)[C@H](O)c4cccc(C(F)(F)F)c4)cc3C)cn(C)c2n1` [Compound 26], the pIC50 is 8.33 against PERK; less than 5.00 on GCN2; less than 5.00 against PKR; less than 5.00 on HRI; 6.26 in the test on p-ERK; less than 5.00 with Kasumi-1 (FLT3wt). In the test on MOLM-13 (FLT3-ITD), this compound had a negative logarithm of the IC50 (pIC50) of 6.51.
